Test results taken from patent US20240391926A1, “SPIROINDOLINONE COMPOUNDS AS Kv1.3 POTASSIUM SHAKER CHANNEL BLOCKERS” (D.E. Shaw Research, LLC, priority 2021, published 2024).

molecular target: T1, Kv1.3 potassium channel (Homo sapiens, UniProt P22001); assay: Kv1.3 potassium channel blocker activity, automated whole-cell patch clamp (Patchliner) in CHO-K1 cells stably expressing Kv1.3; format: cell-based; details: 30 nM-100 μM
T1 construct: expressed in transfected cells
Method: This assay is used to evaluate the disclosed compounds' activities as Kv1.3 potassium channel blockers.
CHO-K1 cells stably expressing Kv1.3 were grown in DMEM containing 10% heat-inactivated FBS, 1 mM sodium pyruvate, 2 mM L-glutamine, and G418 (500 μg/ml). Cells were grown in culture flasks at 37° C. in a 5% CO2-humidified incubator.
The cells were bathed in an extracellular solution containing 140 mM NaCl, 4 mM KCl, 2 mM CaCl2), 1 mM MgCl2, 5 mM glucose, 10 mM HEPES; pH adjusted to 7.4 with NaOH; 295-305 mOsm. The internal solution contained 50 mM KCl, 10 mM NaCl, 60 mM KF, 20 mM EGTA, 10 mM HEPES; pH adjusted to 7.2 with KOH; 285 mOsm. All compounds were dissolved in DMSO at 30 mM. Compound stock solutions were freshly diluted with external solution to concentrations of 30 nM, 100 nM, 300 nM, 1 μM, 3 μM, 10 μM, 30 μM and 100 μM. The highest content of DMSO (0.3%) was present in 100 μM.
The currents were evoked by applying 100 ms depolarizing pulses from −90 mV (holding potential) to +40 mV were applied with 0.1 Hz frequency. Control (compound-free) and compound pulse trains for each compound concentration applied contained 20 pulses. 10-second breaks were used between pulse trains (see Table A below).
Whole-cell current recordings and compound application were enabled by means of an automated patch clamp platform Patchliner (Nanion Technologies GmbH). EPC 10 patch clamp amplifier (HEKA Elektronik Dr. Schulze GmbH) along with Patchmaster software (HEKA Elektronik Dr. Schulze GmbH) was used for data acquisition. Data were sampled at 10 kHz without filtering. Passive leak currents were subtracted online using a P/4 procedure (HEKA Elektronik Dr. Schulze GmbH). Increasing compound concentrations were applied consecutively to the same cell without washouts in between. Total compound incubation time before the next pulse train was not longer than 10 seconds. Peak current inhibition was observed during compound equilibration.
AUC and peak values were obtained with Patchmaster (HEKA Elektronik Dr. Schulze GmbH). To determine IC50, the last single pulse in the pulse train corresponding to a given compound concentration was used. Obtained AUC and peak values in the presence of compound were normalized to control values in the absence of compound. Using Origin (OridinLab), IC50 was derived from data fit to Hill equation: Icompound/Icontrol=(100−A)/(1+([compound]/IC50)nH)+A, where IC50 value is the concentration at which current inhibition is half-maximal, [compound] is the applied compound concentration, A is the fraction of current that is not blocked and nH is the Hill coefficient.

T1 sequence (P22001 whole entry): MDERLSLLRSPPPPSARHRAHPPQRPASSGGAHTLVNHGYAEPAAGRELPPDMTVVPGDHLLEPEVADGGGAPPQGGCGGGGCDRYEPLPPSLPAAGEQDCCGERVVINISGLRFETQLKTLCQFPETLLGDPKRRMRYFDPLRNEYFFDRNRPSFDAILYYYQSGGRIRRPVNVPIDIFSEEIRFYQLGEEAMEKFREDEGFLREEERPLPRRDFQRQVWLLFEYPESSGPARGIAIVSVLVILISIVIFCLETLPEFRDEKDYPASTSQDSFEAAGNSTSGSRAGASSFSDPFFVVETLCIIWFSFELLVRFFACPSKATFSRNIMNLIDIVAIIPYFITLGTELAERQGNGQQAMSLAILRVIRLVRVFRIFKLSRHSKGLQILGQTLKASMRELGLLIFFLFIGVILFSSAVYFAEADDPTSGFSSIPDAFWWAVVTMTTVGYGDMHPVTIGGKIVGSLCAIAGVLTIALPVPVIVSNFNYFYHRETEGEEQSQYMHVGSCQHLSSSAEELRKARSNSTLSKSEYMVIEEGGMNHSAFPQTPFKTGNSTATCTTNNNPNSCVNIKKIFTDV

SMILES	IC50
O=C([C@H]1CCCO1)N1CC[C@]2(C1)C(=O)Nc1cc(Cl)c(Cl)cc12 [Compound 20, (S)-5,6-dichloro-1′-((R)-tetrahydrofuran-2-carbonyl)spiro[indoline-3,3′-pyrrolidin]-2-one]	< 10 µM
O=C([C@@H]1CCOC1)N1CC[C@]2(C1)C(=O)Nc1cc(Cl)c(Cl)cc12 [Compound 24, (S)-5,6-dichloro-1′-((R)-tetrahydrofuran-3-carbonyl)Spiro[indoline-3,3′-pyrrolidin]-2-one]	< 3 µM
O=C1Nc2cc(Cl)c(Cl)cc2[C@]12CCN(C(=O)[C@H]1C[C@@H](O)C1)C2 [Compound 25, (S)-5,6-dichloro-1′-((1s,3R)-3-hydroxycyclobutane-1-carbonyl)spiro[indoline-3,3′-pyrrolidin]-2-one]	< 3 µM
O=C1Nc2cc(Cl)c(Cl)cc2[C@]12CCN(C(=O)[C@H]1C[C@H](O)C1)C2 [Compound 27, (S)-5,6-dichloro-1′-((1r,3S)-3-hydroxycyclobutane-1-carbonyl)spiro[indoline-3,3′-pyrrolidin]-2-one]	< 3 µM
Cn1nc(C(=O)N2CC[C@]3(C2)C(=O)Nc2cc(Cl)c(Cl)cc23)cc1N [Compound 41, (S)-1′-(5-amino-1-methyl-1H-pyrazole-3-carbonyl)-5,6-dichlorospiro[indoline-3,3′-pyrrolidin]-2-one]	< 10 µM
CC(C)C[C@@H](N)C(=O)N1CC[C@]2(C1)C(=O)Nc1cc(Cl)c(Cl)cc12 [Compound 44, (S)-1′-(D-leucyl)-5,6-dichlorospiro[indoline-3,3′-pyrrolidin]-2-one]	< 3 µM
CC(C)C[C@H](N)C(=O)N1CC[C@]2(C1)C(=O)Nc1cc(Cl)c(Cl)cc12 [Compound 45, (S)-1′-(L-leucyl)-5,6-dichlorospiro[indoline-3,3′-pyrrolidin]-2-one]	< 3 µM
CC(C)[C@@H](N)C(=O)N1CC[C@]2(C1)C(=O)Nc1cc(Cl)c(Cl)cc12 [Compound 46, (S)-1′-(D-valyl)-5,6-dichlorospiro[indoline-3,3′-pyrrolidin]-2-one]	< 3 µM
CC(C)[C@H](N)C(=O)N1CC[C@]2(C1)C(=O)Nc1cc(Cl)c(Cl)cc12 [Compound 47, (S)-1′-(L-valyl)-5,6-dichlorospiro[indoline-3,3′-pyrrolidin]-2-one]	< 3 µM
O=C1Nc2cc(Cl)c(Cl)cc2[C@]12CCN(C(=O)[C@H]1CC[C@@H](O)CC1)C2 [Compound 51, (S)-5,6-dichloro-1′-((1s,4R)-4-hydroxycyclohexane-1-carbonyl)spiro[indoline-3,3′-pyrrolidin]-2-one]	< 3 µM
NC[C@H](O)C(=O)N1CC[C@]2(C1)C(=O)Nc1cc(Cl)c(Cl)cc12 [Compound 54, (S)-1′-((S)-3-amino-2-hydroxypropanoyl)-5,6-dichlorospiro[indoline-3,3′-pyrrolidin]-2-one]	< 3 µM
O=C(C[C@H]1CCCN1)N1CC[C@]2(C1)C(=O)Nc1cc(Cl)c(Cl)cc12 [Compound 59, (S)-5,6-dichloro-1′-(2-((R)-pyrrolidin-2-yl)acetyl)spiro[indoline-3,3′-pyrrolidin]-2-one]	< 3 µM
O=C(c1ccc(CO)nc1)N1CC[C@]2(C1)C(=O)Nc1cc(Cl)c(Cl)cc12 [Compound 68, (S)-5,6-dichloro-1′-(6-(hydroxymethyl)nicotinoyl)spiro[indoline-3,3′-pyrrolidin]-2-one]	< 3 µM
Cn1cc(C(=O)N2CC[C@]3(C2)C(=O)Nc2cc(Cl)c(Cl)cc23)cn1 [Compound 69, (S)-5,6-dichloro-1′-(1-methyl-1H-pyrazole-4-carbonyl)spiro[indoline-3,3′-pyrrolidin]-2-one]	< 10 µM
Nc1[nH]ncc1C(=O)N1CC[C@]2(C1)C(=O)Nc1cc(Cl)c(Cl)cc12 [Compound 70, (S)-1′-(5-amino-1H-pyrazole-4-carbonyl)-5,6-dichlorospiro[indoline-3,3′-pyrrolidin]-2-one]	< 3 µM
O=C(Cc1cn[nH]c1)N1CC[C@]2(C1)C(=O)Nc1cc(Cl)c(Cl)cc12 [Compound 72, (S)-1′-(2-(1H-pyrazol-4-yl)acetyl)-5,6-dichlorospiro[indoline-3,3′-pyrrolidin]-2-one]	< 3 µM
O=C(Cc1cc[nH]n1)N1CC[C@]2(C1)C(=O)Nc1cc(Cl)c(Cl)cc12 [Compound 73, (S)-1′-(2-(1H-pyrazol-3-yl)acetyl)-5,6-dichlorospiro[indoline-3,3′-pyrrolidin]-2-one]	< 3 µM

Further lines, results first:

IC50	SMILES
< 1 µM	O=C([C@H]1CNCCO1)N1CC[C@]2(C1)C(=O)Nc1cc(Cl)c(Cl)cc12 [Compound 10, (S)-5,6-dichloro-1′-((R)-morpholine-2-carbonyl)spiro[indoline-3,3′-pyrrolidin]-2-one]
< 3 µM	O=C([C@@H]1CNCCO1)N1CC[C@]2(C1)C(=O)Nc1cc(Cl)c(Cl)cc12 [Compound 11, (S)-5,6-dichloro-1′-((S)-morpholine-2-carbonyl)spiro[indoline-3,3′-pyrrolidin]-2-one]
< 3 µM	C[C@H](O)C(=O)N1CC[C@]2(C1)C(=O)Nc1cc(Cl)c(Cl)cc12 [Compound 12, (S)-5,6-dichloro-1′-((S)-2-hydroxypropanoyl)spiro[indoline-3,3′-pyrrolidin]-2-one]
< 1 µM	O=C([C@H]1CCCNC1)N1CC[C@]2(C1)C(=O)Nc1cc(Cl)c(Cl)cc12 [Compound 16, (S)-5,6-dichloro-1′-((S)-piperidine-3-carbonyl)spiro[indoline-3,3′-pyrrolidin]-2-one]
< 3 µM	CNCC(=O)N1CC[C@]2(C1)C(=O)Nc1cc(Cl)c(Cl)cc12 [Compound 18, (S)-5,6-dichloro-1′-(methylglycyl)spiro[indoline-3,3′-pyrrolidin]-2-one]
< 3 µM	O=C(C(CO)CO)N1CC[C@]2(C1)C(=O)Nc1cc(Cl)c(Cl)cc12 [Compound 19, (S)-5,6-dichloro-1′-(3-hydroxy-2-(hydroxymethyl)propanoyl)spiro[indoline-3,3′-pyrrolidin]-2-one]
< 1 µM	O=C([C@@H]1CCCN1)N1CC[C@]2(C1)C(=O)Nc1cc(Cl)c(Cl)cc12 [Compound 22, (S)-1′-(L-prolyl)-5,6-dichlorospiro[indoline-3,3′-pyrrolidin]-2-one]
< 3 µM	O=C([C@H]1CCCN1)N1CC[C@]2(C1)C(=O)Nc1cc(Cl)c(Cl)cc12 [Compound 23, (S)-1′-(D-prolyl)-5,6-dichlorospiro[indoline-3,3′-pyrrolidin]-2-one]
< 1 µM	O=C(CC1CNC1)N1CC[C@]2(C1)C(=O)Nc1cc(Cl)c(Cl)cc12 [Compound 26, (S)-1′-(2-(azetidin-3-yl)acetyl)-5,6-dichlorospiro[indoline-3,3′-pyrrolidin]-2-one]
< 1 µM	O=C(N1CC[C@]2(C1)C(=O)Nc1cc(Cl)c(Cl)cc12)C1(F)CCNCC1 [Compound 34, (S)-5,6-dichloro-1′-(4-fluoropiperidine-4-carbonyl)spiro[indoline-3,3′-pyrrolidin]-2-one]
< 1 µM	N[C@@H](CO)C(=O)N1CC[C@]2(C1)C(=O)Nc1cc(Cl)c(Cl)cc12 [Compound 36, (S)-1′-(L-Seryl)-5,6-dichlorospiro[indoline-3,3′-pyrrolidin]-2-one]
< 1 µM	N[C@H](CO)C(=O)N1CC[C@]2(C1)C(=O)Nc1cc(Cl)c(Cl)cc12 [Compound 43, (S)-1′-(D-seryl)-5,6-dichlorospiro[indoline-3,3′-pyrrolidin]-2-one]
< 1 µM	O=C(N1CC[C@]2(C1)C(=O)Nc1cc(Cl)c(Cl)cc12)[C@@]1(F)CCCNC1 [Compound 48, (S)-5,6-dichloro-1′-((R)-3-fluoropiperidine-3-carbonyl)spiro[indoline-3,3′-pyrrolidin]-2-one]
< 1 µM	O=C(C1CNCC(F)(F)C1)N1CC[C@]2(C1)C(=O)Nc1cc(Cl)c(Cl)cc12 (stereo partly drawn) [Compound 50, (3S)-5,6-dichloro-1′-(5,5-difluoropiperidine-3-carbonyl)spiro[indoline-3,3′-pyrrolidin]-2-one]
< 1 µM	NC[C@@H](O)C(=O)N1CC[C@]2(C1)C(=O)Nc1cc(Cl)c(Cl)cc12 [Compound 55, (S)-1′-((R)-3-amino-2-hydroxypropanoyl)-5,6-dichlorospiro[indoline-3,3′-pyrrolidin]-2-one]
< 1 µM	O=C(C[C@@H]1CCCN1)N1CC[C@]2(C1)C(=O)Nc1cc(Cl)c(Cl)cc12 [Compound 61, (S)-5,6-dichloro-1′-(2-((S)-pyrrolidin-2-yl)acetyl)spiro[indoline-3,3′-pyrrolidin]-2-one]
